Experimental data: patent publication US9717727B2, “Methods of treating and preventing leukemia and other cancers of the blood and bone” (The Trustees of Columbia University in the City of New York, priority 2011, dated 2017)

What was measured:
[1] = in vivo; cited from earlier work
[2] = test system: EL4 cells; experiment: Injection of EL4 cells pre-treated with LP-533401 or serotonin into syngeneic mice (Example 13); format: in vivo; settings: cells treated before injection; LP-533401 0.1 to 1-fold serum concentration, serotonin 25 to 100 μM
Procedure: EL4 cells and WEH-3B cells, as described in Example 2, were treated with either LP-533401 or serotonin LP-533401 treatments were performed at 0.1 to 1-fold the amount equivalent to the LP-533401 serum concentration in mice treated with this compound. Serotonin was given at concentrations ranging from 25 to 100 μM, doses at which it affects the proliferation of cells expressing serotonin receptors (Kode et al. (2012); Yadav et al. (2008) Serafeim et al. (2003)).
EL4 cells treated with LP-533401 or serotonin were then injected into syngeneic mice as described in Example 2 to monitor leukemia engraftment, as commonly described for evaluating potential direct effects of compounds on leukemia cells (Moellering et al. (2009)).

[3] = test system: hematopoietic compartment; experiment: Flow cytometry of hematopoietic cell populations in bone marrow (Example 11); format: in vivo, mice
Procedure: Freshly isolated bone marrow cells or spleen cells were resuspended in flow-staining buffer (PBS plus 2% FBS) and the primary conjugated antibodies were added. After 30 minutes incubation at 4° C., the cells were then washed twice before flow cytometry analysis. The following antibodies conjugated with fluorescein isothiocyanate (FITC), Allophycocyanin (APC) phycoerythrin (PE), PE-Cy7, APC-CY7, Pacific Blue, and Alexa 700 were used: Lineage cocktail (B220, CD19, IL-7R chain, CD3, DX5, Gr-1, Ter119, CD71 and CD41), B220 (6B2), CD19 (1D3), IgM (II/41), CD3 (KT31.1), CD4 (GK1.5), CD8 (53-6.7), Gr-1 (8C5), Mac1/CD11b (M1/70), Ter119, CD71 (C2), c-Kit (2B8), Sca-1 (E13-161-7), CD34 (RAM34), FcRII/III (2.4G2) or CD135/Flt-3 (all from Becton Dickinson, San Diego, Calif.).
The cell cycle analysis of LSK cells was determined by staining for 30 min at 37° C. with Hoechst 33342 (Molecular Probes) and pyronin Y (Sigma). Seven-color flow cytometry acquisition was performed using a LSR II flow cytometer (Becton Dickinson) and analysis using FLO-JO software (Treestar, Inc). Cells were gated for size, shape and granularity using forward and side scatter parameters. The positive populations were identified as cells that expressed specific levels of fluorescence activity above the nonspecific auto fluorescence of the isotype control. Nonspecific binding was reduced by preincubation with unconjugated anti-FcRII/III (2.4G2). For Flow sorting EL4-GFP-Luc cells were resuspended in flow staining buffer, and flow sorting was performed using FACSAria (BD). Sorted GFP positive cells were then subsequently cultured for 12 hours and injected into the mice.
The methods used in Example 8 to measure the various cell types were used.
Mice treated as described in Example 9 were examined.

[4] = test system: serum serotonin; experiment: Serum serotonin levels by ELISA, EL4 study (Example 9); format: in vivo, mice; settings: leukemic and non-leukemic groups; LP-533401 25 or 200 mg/kg/day oral
Procedure: Mice were treated orally with LP-533401 (25 or 200 mg per kg of body weight per day) or vehicle. Treatments started 15 days before malignant cell injections in all sets of experiments, and continued for the indicated periods of time. LP-533401 was dissolved in polyethylene glycol (PEG) and 5% dextrose or 2.5% glucose (Sigma), and given daily by oral gavage. Mice treated with vehicle were administered, in the same way as LP533401, a solution of PEG and 5% dextrose or 2.5% glucose, daily, by oral gavage. For measurements of serum serotonin levels, mice were briefly exposed to Isoflurane (Baxter) for 30 seconds and blood was collected by cardiac puncture. Similar volumes of blood were collected from different animals for consistency in the clotting times. Serum collection from all mice was done between 9:00 am and 12:00 pm. Blood was allowed to clot on ice for 5 minutes before centrifugation at maximum speed at 4° C. for 10 minutes. The serum supernatant was removed, snap frozen and stored at −80° C. for further analysis. Serum serotonin levels were quantified by ELISA (Serotonin kit, Fitzgerald) according to manufacturer's instructions.

[5] = target: T1, Tph2 (Homo sapiens, UniProt Q8IWU9); settings: in vitro; cited from earlier work
T1 sequence (Q8IWU9 1-490): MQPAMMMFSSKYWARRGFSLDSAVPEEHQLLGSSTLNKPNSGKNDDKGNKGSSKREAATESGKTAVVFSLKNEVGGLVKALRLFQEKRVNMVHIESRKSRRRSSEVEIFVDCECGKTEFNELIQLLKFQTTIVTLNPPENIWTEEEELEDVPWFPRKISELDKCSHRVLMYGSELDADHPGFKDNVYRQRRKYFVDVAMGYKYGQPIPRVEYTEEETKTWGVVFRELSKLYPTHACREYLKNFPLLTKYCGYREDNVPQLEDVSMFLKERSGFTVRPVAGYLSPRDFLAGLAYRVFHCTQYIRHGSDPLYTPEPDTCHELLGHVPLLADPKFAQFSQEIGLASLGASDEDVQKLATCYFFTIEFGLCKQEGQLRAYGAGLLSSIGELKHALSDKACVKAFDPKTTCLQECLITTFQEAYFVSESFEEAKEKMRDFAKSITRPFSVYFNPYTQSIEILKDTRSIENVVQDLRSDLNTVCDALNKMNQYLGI

[6] = test system: bone loss; settings: in vivo; cited from earlier work

Q: For Nc1nc(OC(c2ccc(-c3cccc(F)c3)cc2)C(F)(F)F)cc(-c2ccc(C[C@H](N)C(=O)O)cc2)n1 (stereo partly drawn) [LP-533401], which “crossing of the blood-brain barrier” value [1] is on record?
A: Its value is “did not cross the blood-brain barrier”.

Q: What about the “leukemia outcome (burden and lethality) after injection of pre-treated EL4 cells” value [2] of the same compound?
A: The value was “neither of the two treatments altered leukemia outcome”.

Q: What about the “numbers of LSK FLT3+ cells” value ([3]; healthy and leukemic mice) of the same compound?
A: The value was “reduced the numbers”.

Q: What about the B-lymphopoiesis ([3]; leukemic animals) of the same compound?
A: The B-lymphopoiesis was “did not affect”.

Q: And the “GMP and CMP populations” value ([3]; leukemic mice)?
A: Its value is “further suppressed their frequencies”.

Q: And the “LSK FLT3+ lymphoid progenitor cell subset (percentage)” value ([3]; leukemic mice)?
A: Its value is “not affected”.

Q: What about the MEP subsets ([3]; leukemic mice) of the same compound?
A: The MEP subsets was “not affected”.

Q: What about the “TER119+ erythroid progenitor cells” value ([3]; leukemic mice) of the same compound?
A: The value was “increased”.

Q: What about the “increase in CD3+ cells” value ([3]; leukemic mice) of the same compound?
A: The value was “prevented the increase”.

Q: And the “increase in CD11b+GR1+ myeloid cells” value ([3]; leukemic mice)?
A: Its value is “limited the increase”.

Q: What about the “leukemia-induced increase of LSK cells in the bone marrow” value ([3]; leukemic mice) of the same compound?
A: The value was “hampered”.

Q: What about the “leukemia-reduced total bone marrow cellularity” value ([3]; leukemic mice) of the same compound?
A: The value was “not altered”.

Q: What about the “CMPs and MEPs” value ([3]; non-leukemic mice) of the same compound?
A: Its value is “not affected”.

Q: What about the “GMPs and more mature myeloid cells” value ([3]; non-leukemic mice) of the same compound?
A: Its value is “decreased”.

Q: And the “LSK cells in the bone marrow compared to wild-type” value ([3]; non-leukemic mice)?
A: The value was “decrease”.

Q: And the “Ter119+ erythroid cells” value ([3]; non-leukemic mice)?
A: The value was “increased”.

Q: And the “lymphoid lineage, including B and T cells” value ([3]; non-leukemic mice)?
A: Its value is “no effect”.

Q: What about the “total bone marrow cellularity” value ([3]; non-leukemic mice) of the same compound?
A: The value was “did not affect”.

Q: What about the “decrease in serum serotonin levels compared to vehicle-treated animals” value [4] of the same compound?
A: The value was 30%.

Q: What about the “inhibition of Tph2 relative to Tph1” value [5] of the same compound?
A: The value was “inhibits Tph2 as effectively as Tph1”.

Q: What about the “effect against bone loss” value [6] of the same compound?
A: Its value is “effective against bone loss”.
